“And” between values parts separate entries of the source, which are not always exact repeats. Equal values may be shown once.
What was measured:
[1] = target: T1, CNA-CF-PRIEIT interaction (Homo sapiens, UniProt Q08209); assay: Fluorescence polarization assay, disruption of the CNA-CF-PRIEIT interaction (Example 20); type: binding; settings: 50 µM compound, 5 µM human CNAα, 30 nM CF-PRIEIT; mean of triplicates
T1 construct: human CNAα (amino acids 2-347)
Procedure: Compounds were analyzed for their potential to disrupt the interaction between the human catalytic domain of the calcineurin Aα subunit (CNAα) and the NFATc2-derived PRIEIT peptide. For this purpose we used Flourescence Polarization (FP) technique described in Mulero et al, 2009 (J. Biol. Chem.284:9394-9401). Briefly, to identify disruptors of the CNA-PRIEIT interaction, 5 µM of human CNAα (amino acids 2-347) is preincubated with 50 µM of each hit compound in OptiPlate black 384-well flat-bottom plates (PerkinElmer Life Sciences) for 15 min at room temperature. Then, carboxyfluorescein (CF)-tagged NFATc2-derived PRIEIT peptide (CF-PRIEIT, 30 nM) is added to each well and incubated for 15 more min at room temperature. Each compound has been analyzed once with triplicates. FP measurements were performed using a Victor™ X5 2030 Multilabel Reader (PerkinElmer Life Sciences) with excitation and emission wavelengths of 485 nm and 535 nm, respectively. The fluorescent polarization of the free CF-peptide was considered 0% binding and the binding of CNA to the CF-PRIEIT peptide as 100% binding. Accordingly, the capacity of the compound to disrupt CNA-CF-PRIEIT interaction was measured. None of them displace the CF-PRIEIT peptide from the CNA-PRIEIT interaction (Table 3). Interaction disruption values are less than 30%. […] Data is given as mean ± standard deviation (SD).

[2] = system: NFATc activation in HEK 293T cells; assay: 3xNFAT-luc dual-luciferase reporter assay of NFATc activation; type: cell-based, human; settings: Io/PMA/CaCl2 stimulation, inhibition at least at 100, 50 and 20 µM (Figure 1)
Procedure: • Figure 1. Effect of INK compounds on NFATc activation in HEK 293T cells. Cells were transfected with 3xNFAT-luc reporter gene, treated with each compound at 0 µM / 0.02 µM / 0.2 µM / 1 µM / 5 µM/ 20 µM / 50 µM /100 µM (increasing concentrations of the compounds are represented in the graph from left to right) for 2 hours. Then, cells were calcium stimulated with ionomycin (1 µM), PMA (20 nM) and CaCl2 (10 mM) for 4 hours and luciferase activity was analyzed following the dual luciferase reporter assay manufacters' indications and a luminometer (Victor X5 plate reader form Perin-Elmer). […] CN activity towards the RII peptide was analyzed in the absence (positive control of CN activity) or in the presence of each compound at 50 µM, or of 50 µM of LxVP peptide (positive control of CN activity inhibition). […]
To determine the ffect of INK compounds on NFATc activation, HEK 293T cells were transfected with 3xNFAT-luc reporter gene and Renilla-luc plasmid as control of gene transfection. […] Then, cells were treated with compounds of formula (I) at several concentrations for 2 hours and light units analyzed following manufacture's protocol of the dual-luciferase reporter assay system (Figure 1, Functional effect of pair related structure compounds on NFATc activation).

CN-PRIEIT interaction = target: T2, CN-PRIEIT interaction (Homo sapiens, UniProt Q08209); assay: Fluorescence polarization competition binding assay, CF-SPRIEIT bound to CNA (Example 21); settings: 6 µM CNA, 30 nM CF-SPRIEIT, no competitor = 100%
T2 construct: recombinant human CNAD (amino acids 2-347) fused to glutathione S-transferase; GST (glutathione S-transferase); made in house; host or cells: bacteria
Procedure: INK compounds were analyzed for their ability to disrupt CN-PRIEIT interaction using a fluorescence polarization assay. This biochemical assay requires recombinant human CNAD (amino acids 2-347) fused to glutathione S-transferase (GST-CN), which was expressed and purified from bacteria, and a NFATc2-derived PRIEIT peptide labeled with carboxyfluorescein (CF), CF-PRIEIT. Competition binding assays of INK compounds on the interaction of CN with the CF-NFATc2-derived PRIEIT peptide were performed by fluorescence polarization. Briefly, 6 µM of CNA was incubated in the absence (positive control of interaction) or in the presence of 50 µM or 10 µM of competitor compound prior to addition of 30 nM of CF-SPRIEIT peptide. VIVIT peptide was included as positive control of interaction disruption ability. Data is represented as mean percentage of CF-SPRIEIT bound to CNA (± SEM) of 2 experiments performed in triplicates. Signal in the absence of competing peptide was considered as 100% of CF-SPRIEIT bound to CNA. Table 4: Functional effect of pair related structure compounds on NFATc activation

T2 sequence (Q08209 2-347): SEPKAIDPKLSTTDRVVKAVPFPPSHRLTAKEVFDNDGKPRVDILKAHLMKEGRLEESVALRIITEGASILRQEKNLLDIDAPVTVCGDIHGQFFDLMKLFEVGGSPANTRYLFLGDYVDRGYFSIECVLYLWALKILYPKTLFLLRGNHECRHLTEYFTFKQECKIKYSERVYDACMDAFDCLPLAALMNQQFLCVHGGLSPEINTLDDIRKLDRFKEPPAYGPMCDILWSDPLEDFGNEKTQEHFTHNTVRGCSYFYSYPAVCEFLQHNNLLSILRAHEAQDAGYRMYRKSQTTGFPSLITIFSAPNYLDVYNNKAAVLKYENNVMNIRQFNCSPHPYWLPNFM
T1 sequence (Q08209 2-347): as above

| inhibition at 50 µM [1] [%] | SMILES | also measured |
| --- | --- | --- |
| 25.8 | COc1ccccc1-c1ccc(N2CCCC(NS(=O)(=O)c3cc4ccccc4o3)C2=O)c(F)c1 (stereo not shown) [IUCT-0464, N-(1-(3-fluoro-2'-methoxy-[1,1'-biphenyl]-4-yl)-2-oxopiperidin-3-yl)benzofuran-2-sulfonamide] | NFATc activation [2]: strongly inhibits; Relative interaction (%) Mean (CN-PRIEIT interaction; 10 µM competitor): 93,8%; Relative interaction (%) Sample at 10 µM (CN-PRIEIT interaction; 10 µM competitor, single replicate): 96,8% and 92,3% and 92,4%; Relative interaction (%) Mean (CN-PRIEIT interaction; 50 µM competitor): 83,2%; Relative interaction (%) Sample at 50 µM (CN-PRIEIT interaction; 50 µM competitor, single replicate): 79,0% and 87,7% and 82,9% |
| 16.7 | CCOC(=O)CN(C1CCCN(c2ccc(-c3ccccc3OC)cc2F)C1=O)S(=O)(=O)c1ccc2c(c1)OCO2 (stereo not shown) [IUCT-0466, Ethyl N-(benzo[d][1,3]dioxol-5-ylsulfonyl)-N-(1-(3-fluoro-2'-methoxy-[1,1'-biphenyl]-4-yl)-2-oxopiperidin-3-yl)glycinate] | – |
| 13.8 | COc1ccccc1-c1ccc(N2CCCC(N(CC#N)S(=O)(=O)c3cc(Cl)c(Cl)s3)C2=O)c(F)c1 (stereo not shown) [IUCT-0465, 4,5-Dichloro-N-(cyanomethyl)-N-(1-(3-fluoro-2'-methoxy-[1,1'-biphenyl]-4-yl)-2-oxopiperidin-3-yl)thiophene-2-sulfonamide] | – |
| 29.3 | CCOC(=O)CN(C1CCCN(c2ccc(-c3ccccc3OC)cc2F)C1=O)S(=O)(=O)c1ccc(-c2ccccn2)s1 (stereo not shown) [IUCT-0469, Ethyl N-(1-(3-fluoro-2'-methoxy-[1,1'-biphenyl]-4-yl)-2-oxopiperidin-3-yl)-N-((5-(pyridin-2-yl)thiophen-2-yl)sulfonyl)glycinate] | – |

More lines, now with the values behind:

| SMILES | inhibition at 50 µM [1] [%] | also measured |
| --- | --- | --- |
| COc1ccccc1-c1ccc(N2CCCC(NS(=O)(=O)c3ccc(-c4ccccn4)s3)C2=O)c(F)c1 (stereo not shown) [IUCT-0463, N-(1-(3-fluoro-2'-methoxy-[1,1'-biphenyl]-4-yl)-2-oxopiperidin-3-yl)-5-(pyridin-2-yl)thiophene-2-sulfonamide] | 15.8 | – |
| COc1ccccc1-c1ccc(N2CCCC(NS(=O)(=O)c3ccc4c(c3)OCO4)C2=O)c(F)c1 (stereo not shown) [IUCT-0462, N-(1-(3-fluoro-2'-methoxy-[1,1'-biphenyl]-4-yl)-2-oxopiperidin-3-yl)benzo[d][1,3]dioxole-5-sulfonamide] | 25.7 | – |
| COc1ccccc1-c1ccc(N2CCCC(NS(=O)(=O)c3c(C)noc3C)C2=O)c(F)c1 (stereo not shown) [IUCT-0461, N-(1-(3-fluoro-2'-methoxy-[1,1'-biphenyl]-4-yl)-2-oxopiperidin-3-yl)-3,5-dimethylisoxazole-4-sulfonamide] | 11.1 | – |
| COc1ccccc1-c1ccc(N2CCCC(NS(=O)(=O)c3cc(Cl)c(Cl)s3)C2=O)c(F)c1 (stereo not shown) [IUCT-0460, 4,5-Dichloro-N-(1-(3-fluoro-2'-methoxy-[1,1'-biphenyl]-4-yl)-2-oxopiperidin-3-yl)thiophene-2-sulfonamide] | 6.53 | – |
